In PubChem BioAssay AID2060487 (Molecular Pharmacology Branch, DTP, NCI, 2025):
Where “and” joins values, the source holds several entries; their conditions need not be identical. Equal entries are not always repeated. Blank lines part the entries; values can stand above or below the compound they belong to.

Test system: 997537-175-T-J1-PDC complex spheroid viability
Assay: Anticancer human tumor 997537-175-T-J1-PDC patient-derived colon adenocarcinoma cell line growth inhibition [GQUAD]
Conditions: for viability, T/C: stronger effect = lower value
Description: DNA G-quadruplex Stabilizer Agents in Combinations in Complex Spheroids
A high-throughput screen of multi-cell type tumor spheroids was designed to identify active combinations of DNA G-quadruplex stabilizer agents and targeted small molecules. Complex spheroids include a stromal component modeled by human endothelial cells (HUVEC) and fibroblasts modeled by human mesenchymal stem cells (MSCs). The concentration ranges selected for each drug and investigational agent were based upon clinically achievable concentrations if the clinical Cmax of the agent was known.
Compounds. The drugs and investigational agents: pidnarulex (CX-5461; NSC782164), APTO-253 (NSC789042), BRACO-19 (NSC847499), peposertib (NSC802822), ceralasertib (NSC780249), elimusertib (NSC800525), camonsertib (NSC841442), AZD-1390 (NSC803789), olaparib (NSC753686), talazoparib (NSC767125), ART-558 (NSC835418), sotorasib (NSC818433), MRTX-1133 (NSC836407), SN-38 (NSC673596), topotecan (NSC609699), etoposide (NSC141540), doxorubicin (NSC123127), gemcitabine (NSC613327), 5-fluorouracil (NSC19893), paclitaxel (NSC125973), vemurafenib (NSC761431), panobinostat (NSC761190), R-306465 (JNJ-16241199; NSC773264), adavosertib (NSC754352), TP-3654 (NSC805149), carboplatin (NSC241240), KSQ-4279 (NSC840948), and staurosporine (NSC755774) were obtained from the National Cancer Institute (NCI) Developmental Therapeutics Program Chemical Repository (34). The FDA-approved anticancer drug set is available from the NCI Developmental Therapeutics Program. […] The stock solutions were prepared in dimethyl sulfoxide (DMSO, Sigma-Aldrich, St. Louis, MO, cat. D2650) at 800-fold the tested concentration and stored at -70 degrees C prior to their use. All drugs and investigational agents were tested over a range starting from a high concentration at or near the clinical Cmax and decreasing in half-log increments. If the clinical Cmax for an agent had not been determined, the highest concentration tested was 10 microM.
2.3 Cell Culture. All cells were maintained in an incubator at 37 degrees C and 5% CO2 with 95% humidity. The PDC lines were cultured according to standard operating procedures established by the NCI PDMR. All PDCs were thawed and cultured in Matrigel-coated flasks prepared with a working solution of 1X Ham's F-12 nutrient mix, without supplementation (Invitrogen, cat. 11765054), 100 U/mL penicillin-streptomycin (Invitrogen, cat. 15140122), and 2.5% Matrigel (Corning Inc., cat. 354248) for the first three passages. The 857933-349-R-J2-PDC line was cultured in 6C/Colon 1B media, which includes advanced DMEM/F-12 (Thermo Fisher Scientific, cat. 12634028), 10 mM HEPES (Thermo Fisher Scientific, cat. 15630080), 1X GlutaMAX supplement (Thermo Fisher Scientific, cat. 35050061), 0.1 mg/mL primocin (InvivoGen, cat. ant-pm-2), 10% defined fetal bovine serum, heat inactivated (HyClone Laboratories Inc., cat. SH30070.03HI), 50% L-WRN conditioned media (ATCC, cat. CRL-3276), 1.25 mM N-Acetyl-L-cysteine (Sigma-Aldrich, cat. A9165), 10 mM nicotinamide (Sigma-Aldrich, cat. N0636), 1X B-27 supplement (Thermo Fisher Scientific, cat. 17504044), 1X N-2 supplement (Thermo Fisher Scientific, cat. 17502048), 10 microM Y-27632 dihydrochloride (Tocris Bioscience, cat. 1254), and 50 ng/mL human EGF recombinant protein (Thermo Fisher Scientific, cat. PHG0311). The 485176-168-R4-J1-PDC line was cultured in Panc media, which includes all 6C/Colon 1B media components plus 100 ng/mL human FGF-10 (Thermo Fisher Scientific, cat. 100-26), 500 nM SB-431542 (Selleckchem, cat. S1067), and gastrin (Tocris, cat. 3006).
[…]

[1] = curve of first compound, second compound 0.0316 µM
[2] = curve of first compound, second compound 0.1 µM
[3] = curve of first compound, second compound 0.316 µM
[4] = curve of first compound, second compound 1 µM
[5] = curve of first compound, second compound 3.16 µM
[6] = curve of first compound, second compound 10 µM
[7] = second compound 0.0316 µM, first compound 0.0316 µM
[8] = second compound 0.0316 µM, first compound 0.1 µM
[9] = second compound 0.0316 µM, first compound 0.316 µM
[10] = second compound 0.0316 µM, first compound 1 µM
[11] = second compound 0.0316 µM, first compound 3.16 µM
[12] = second compound 0.0316 µM, first compound 10 µM
[13] = second compound 0.1 µM, first compound 0.0316 µM
[14] = second compound 0.1 µM, first compound 0.1 µM
[15] = second compound 0.1 µM, first compound 0.316 µM
[16] = second compound 0.1 µM, first compound 1 µM
[17] = second compound 0.1 µM, first compound 3.16 µM
[18] = second compound 0.1 µM, first compound 10 µM
[19] = second compound 0.316 µM, first compound 0.0316 µM
[20] = second compound 0.316 µM, first compound 0.1 µM
[21] = second compound 0.316 µM, first compound 0.316 µM
[22] = second compound 0.316 µM, first compound 1 µM
[23] = second compound 0.316 µM, first compound 3.16 µM
[24] = second compound 0.316 µM, first compound 10 µM
[25] = second compound 1 µM, first compound 0.0316 µM
[26] = second compound 1 µM, first compound 0.1 µM
[27] = second compound 1 µM, first compound 0.316 µM
[28] = second compound 1 µM, first compound 1 µM
[29] = second compound 1 µM, first compound 3.16 µM
[30] = second compound 1 µM, first compound 10 µM
[31] = second compound 3.16 µM, first compound 0.0316 µM
[32] = second compound 3.16 µM, first compound 0.1 µM
[33] = second compound 3.16 µM, first compound 0.316 µM
[34] = second compound 3.16 µM, first compound 1 µM
[35] = second compound 3.16 µM, first compound 3.16 µM
[36] = second compound 3.16 µM, first compound 10 µM
[37] = second compound 10 µM, first compound 0.0316 µM
[38] = second compound 10 µM, first compound 0.1 µM
[39] = second compound 10 µM, first compound 0.316 µM
[40] = second compound 10 µM, first compound 1 µM
[41] = second compound 10 µM, first compound 3.16 µM
[42] = second compound 10 µM, first compound 10 µM
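Note: spheroids exposed to the agents for 7 days.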
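Throughout, for viability, T/C: 100% = DMSO vehicle control viability.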

SMILES: CC1COCCN1c1cc(-c2ccnn2C)c2ccnc(-c3ccn[nH]3)c2n1 (stereo not drawn) + Cc1[nH]c2ccc(F)cc2c1-c1nc2c3cccnc3c3ncccc3c2[nH]1
IC50 [1]: 209 nM
IC50 [2]: 287 nM
IC50 [3]: 288 nM
IC50 [4]: 376 nM
IC50 [5]: 179 nM
IC50 [6]: 113 nM
viability, T/C [7]: 82.8%
viability, T/C [8]: 66.7%
viability, T/C [9]: 36.5%
viability, T/C [10]: 28.3%
viability, T/C [11]: 35%
viability, T/C [12]: 62.5%
viability, T/C [13]: 86.1%
viability, T/C [14]: 64.5%
viability, T/C [15]: 57.3%
viability, T/C [16]: 24.7%
viability, T/C [17]: 37.3%
viability, T/C [18]: 46.5%
viability, T/C [19]: 76.7%
viability, T/C [20]: 58.5%
viability, T/C [21]: 57.4%
viability, T/C [22]: 32.5%
viability, T/C [23]: 36.4%
viability, T/C [24]: 46.4%
viability, T/C [25]: 60.4%
viability, T/C [26]: 56.1%
viability, T/C [27]: 51.6%
viability, T/C [28]: 21.6%
viability, T/C [29]: 42.6%
viability, T/C [30]: 57.9%
viability, T/C [31]: 54.8%
viability, T/C [32]: 70.2%
viability, T/C [33]: 29.2%
viability, T/C [34]: 40.8%
viability, T/C [35]: 33.8%
viability, T/C [36]: 47%
viability, T/C [37]: 65.8%
viability, T/C [38]: 55.3%
viability, T/C [39]: 36.4%
viability, T/C [40]: 42.5%
viability, T/C [41]: 52.3%
viability, T/C [42]: 47.9%

IC50 (curve of compound): > 316 nM and 316 nM
SMILES: Cc1[nH]c2ccccc2c1CCNCc1ccc(/C=C/C(=O)NO)cc1
viability, T/C (compound 0.000999 µM): 93.4% and 96.3% and 94.4%
viability, T/C (compound 0.00316 µM): 101% and 94.2% and 106%
viability, T/C (compound 0.00999 µM): 110% and 59.3% and 109%
viability, T/C (compound 0.0316 µM): 105% and 87.4% and 93.1%
viability, T/C (compound 0.0999 µM): 100% and 86.6% and 92.4%
viability, T/C (compound 0.316 µM): 87.6% and 50% and 52%

IC50 (curve of compound): 345 nM and 701 nM and 282 nM
SMILES: CC1COCCN1c1cc(C2(O)CC3CCC(C2)O3)c2cnn(-c3ccn[nH]3)c2n1 (stereo not drawn)
viability, T/C (compound 0.0316 µM): 86.8% and 86.6% and 96.4%
viability, T/C (compound 0.1 µM): 57.4% and 66.7% (2×)
viability, T/C (compound 0.316 µM): 50.3% and 53.8% and 37.7%
viability, T/C (compound 1 µM): 51.1% and 54.5% and 70.1%
viability, T/C (compound 3.16 µM): 49.2% and 35.5% and 36.5%
viability, T/C (compound 10 µM): 44.9% and 33.9% and 48.4%

SMILES: O=C(c1cc(Cc2n[nH]c(=O)c3ccccc23)ccc1F)N1CCN(C(=O)C2CC2)CC1 + CN(C)c1ccc(Nc2c3ccc(NC(=O)CCN4CCCC4)cc3nc3cc(NC(=O)CCN4CCCC4)ccc23)cc1
IC50 [1]: > 10000 nM
IC50 [2]: > 10000 nM
IC50 [3]: > 10000 nM
IC50 [4]: > 10000 nM
IC50 [5]: > 10000 nM
IC50 [6]: > 10000 nM
viability, T/C [7]: 106%
viability, T/C [8]: 89.7%
viability, T/C [9]: 91.4%
viability, T/C [10]: 79.1%
viability, T/C [11]: 98.9%
viability, T/C [12]: 90.6%
viability, T/C [13]: 92%
viability, T/C [14]: 99.2%
viability, T/C [15]: 97.2%
viability, T/C [16]: 74.5%
viability, T/C [17]: 91.4%
viability, T/C [18]: 88.9%
viability, T/C [19]: 88.3%
viability, T/C [20]: 78.2%
viability, T/C [21]: 90.4%
viability, T/C [22]: 72%
viability, T/C [23]: 97.3%
viability, T/C [24]: 84.3%
viability, T/C [25]: 85.7%
viability, T/C [26]: 86%
viability, T/C [27]: 77.6%
viability, T/C [28]: 85.6%
viability, T/C [29]: 92.4%
viability, T/C [30]: 85.4%
viability, T/C [31]: 82.8%
viability, T/C [32]: 105%
viability, T/C [33]: 88.7%
viability, T/C [34]: 73.9%
viability, T/C [35]: 85.8%
viability, T/C [36]: 105%
viability, T/C [37]: 74.9%
viability, T/C [38]: 97.4%
viability, T/C [39]: 95.2%
viability, T/C [40]: 93.8%
viability, T/C [41]: 102%
viability, T/C [42]: 96%
